Results on 17 compounds are retold here after patent publication US12570655B2, “Cysteine covalent modifiers of AKT1 and uses thereof” (Terremoto Biosciences, Inc., priority 2023, dated 2026).

Like-named read-outs stand apart in the source and are kept apart here.

Holding throughout (assay type): cell-based
For test [1], the target named is T1, AKT1 E17K (Homo sapiens, UniProt P31749, E17K).
T1 construct: expressed in transfected cells; host or cells: HEK293
The experiment in a line: Live cell AKT1 E17K target engagement by NanoBRET competitive probe displacement. The following applies: HEK293 cells transfected with kinase-NanoLuciferase fusion, 2 h at 37° C. Put shortly: (§1)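 NanoLuc-kinase fusions, HEK293, transfected overnight; compound serial dilution + ATP-competitive fluorescent tracer at ~EC50; 2 h, 37 °C. Read 460/600 nm with extracellular NanoLuc inhibitor; BRET = E600/E460; IC50 by Hill fit.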

The target in test [2] is T2, AKT2 (Homo sapiens, UniProt P31751).
T2 construct: expressed in transfected cells; host or cells: HEK293
T2 sequence (P31751 whole entry): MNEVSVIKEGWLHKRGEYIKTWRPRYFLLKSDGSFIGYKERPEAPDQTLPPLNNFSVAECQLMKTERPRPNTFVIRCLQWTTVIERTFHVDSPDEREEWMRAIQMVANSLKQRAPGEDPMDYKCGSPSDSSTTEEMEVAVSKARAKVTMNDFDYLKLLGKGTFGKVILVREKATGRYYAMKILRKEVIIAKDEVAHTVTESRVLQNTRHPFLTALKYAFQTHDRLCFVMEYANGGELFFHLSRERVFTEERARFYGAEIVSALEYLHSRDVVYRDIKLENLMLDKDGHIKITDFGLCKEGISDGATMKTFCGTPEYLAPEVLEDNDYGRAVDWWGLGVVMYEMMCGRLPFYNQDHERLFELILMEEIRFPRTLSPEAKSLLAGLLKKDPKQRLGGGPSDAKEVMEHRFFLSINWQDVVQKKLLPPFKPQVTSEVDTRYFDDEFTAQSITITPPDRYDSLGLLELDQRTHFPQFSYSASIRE
The experiment in a line: Live cell AKT2 target engagement by NanoBRET competitive probe displacement. The following applies: HEK293 cells transfected with kinase-NanoLuciferase fusion, 2 h at 37° C. A digest of the protocol:
as §1

Test [3] addresses T3, AKT1 WT (Homo sapiens, UniProt P31749).
T3 construct: expressed in transfected cells; host or cells: HEK293
The experiment in a line: Live cell AKT1 WT target engagement by NanoBRET competitive probe displacement. To be noted: HEK293 cells transfected with kinase-NanoLuciferase fusion, 2 h at 37° C. Put shortly:
as §1

The test system of test [4] is LAPC4 prostate cancer cells. The experiment in a line: Antiproliferative effects in LAPC4 cells (CellTiter Glo). To be noted: LAPC4 cells (AKT1 E17K allele), read-out: LAPC4 proliferation IC50. Put shortly: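 Luminescent ATP read-out (CellTiter Glo) after 72 h compound exposure; 1,000 cells/well in IMDM + 12% FBS + 1% P/S. IC50 by Hill equation fit of luminescence vs. log(inhibitor).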

T1 sequence (P31749 whole entry E17K): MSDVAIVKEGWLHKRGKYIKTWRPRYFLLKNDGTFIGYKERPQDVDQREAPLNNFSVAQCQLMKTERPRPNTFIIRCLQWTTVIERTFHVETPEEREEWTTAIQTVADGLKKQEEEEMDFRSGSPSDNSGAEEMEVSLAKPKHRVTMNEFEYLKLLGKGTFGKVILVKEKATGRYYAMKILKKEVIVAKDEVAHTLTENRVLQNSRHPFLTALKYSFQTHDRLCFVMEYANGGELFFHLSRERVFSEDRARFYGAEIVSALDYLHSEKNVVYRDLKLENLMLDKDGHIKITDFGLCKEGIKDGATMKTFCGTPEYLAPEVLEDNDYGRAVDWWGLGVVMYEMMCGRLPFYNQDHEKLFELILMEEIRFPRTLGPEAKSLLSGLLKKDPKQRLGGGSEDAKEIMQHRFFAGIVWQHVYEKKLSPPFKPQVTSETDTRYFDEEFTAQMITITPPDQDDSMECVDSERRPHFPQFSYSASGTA
T3 sequence (P31749 whole entry): as the sequence (P31749 whole entry E17K) above, with K17E counted along it

In the case of `C=CC(=O)N1CCC(NC2c3ccc(-n4c(-c5cccnc5N)nc5ccc(-n6cccn6)nc54)cc3CC2O)CC1` (single isomer, unassigned) [Example 150, 1-(4-(((1*,2*)-5-(2-(2-aminopyridin-3-yl)-5-(1H-pyrazol-1-yl)-3H-imidazo[4,5-b]pyridin-3-yl)-2-hydroxy-2,3-dihydro-1H-inden-1-yl)amino)piperidin-1-yl)prop-2-en-1-one], the IC50 turned out to be 213 nM in test [1], 781 nM in test [2], 31.1 nM in test [3] and 478 nM in test [4] (72 h).
As for `C=CC(=O)N1CCC(N[C@H]2CCc3cc(-n4c(-c5cccnc5N)nc5ccc(-n6cccn6)nc54)ccc32)C(C)(F)C1` (stereo partly drawn) [Example 308, 1-((3*)-4-(((S)-5-(2-(2-aminopyridin-3-yl)-5-(1H-pyrazol-1-yl)-3H-imidazo[4,5-b]pyridin-3-yl)-2,3-dihydro-1H-inden-1-yl)amino)-3-fluoro-3-methylpiperidin-1-yl)prop-2-en-1-one], the IC50 in test [1] turned out to be 11.8 nM; in test [2], 62.3 nM; in test [3], 307 nM; in test [4] (Homo sapiens, LAPC4, 72 h) it was 300 nM.
For `C=CC(=O)N1CCC(N[C@H]2CCc3cc(-n4c(-c5cccnc5N)nc5ccc(C6CC6)nc54)ccc32)C(F)C1` (mixture of isomers) [Example 175, 1-(4-(((S)-5-(2-(2-aminopyridin-3-yl)-5-cyclopropyl-3H-imidazo[4,5-b]pyridin-3-yl)-2,3-dihydro-1H-inden-1-yl)amino)-3-fluoropiperidin-1-yl)prop-2-en-1-one], in that order: 17.9 nM, 123 nM, 820 nM and 271 nM.
With `C=CC(=O)N1CC2CC[C@H]1CC2N[C@H]1CCc2cc(-n3c(-c4cccnc4N)nc4ccc(-n5cccn5)nc43)ccc21` (single isomer, unassigned) [Example 133, 1-[(1S,4S,5*)-5-{[(1S)-5-[2-(2-aminopyridin-3-yl)-5-(pyrazol-1-yl)imidazo[4,5-b]pyridin-3-yl]-2,3-dihydro-1H-inden-1-yl]amino}-2-azabicyclo[2.2.2]octan-2-yl]prop-2-en-1-one], the IC50 is 13.4 nM in test [1], 47 nM in test [2], 9.71 nM in test [3] and 16.3 nM in test [4] (72 h).
On to `C=CC(=O)N1CCC(N[C@H]2CCc3cc(-n4c(-c5cccnc5N)nc5ccc(-n6cccn6)nc54)ccc32)C(F)C1` (single isomer, unassigned) [Example 103, 1-((3*,4*)-4-(((S)-5-(2-(2-aminopyridin-3-yl)-5-(1H-pyrazol-1-yl)-3H-imidazo[4,5-b]pyridin-3-yl)-2,3-dihydro-1H-inden-1-yl)amino)-3-fluoropiperidin-1-yl)prop-2-en-1-one], for which the IC50 in test [1] was determined as 80.1 nM; in test [2], 547 nM; in test [3], 19.3 nM; in test [4] (72 h), 317 nM.
As to `C=CC(=O)Nc1c(F)cccc1C(=O)N[C@H]1CCc2cc(-n3c(-c4cccnc4N)nc4ccc(-n5cccn5)nc43)ccc21` [Example 44, N-[(1S)-5-[2-(2-aminopyridin-3-yl)-5-(pyrazol-1-yl)imidazo[4,5-b]pyridin-3-yl]-2,3-dihydro-1H-inden-1-yl]-3-fluoro-2-(prop-2-enamido)benzamide], the IC50 in test [1] was determined as 49 nM; in test [2], 103 nM; in test [3], 34.5 nM; in test [4] (Homo sapiens, LAPC4, 72 h), 122 nM.
For `C=CC(=O)N1CCC(N[C@H]2CCc3cc(-n4c(-c5cccnc5N)nc5ccc(N6CCCOCC6)nc54)ccc32)CC1` [Example 205, 1-(4-{[(1S)-5-[2-(2-aminopyridin-3-yl)-5-(1,4-oxazepan-4-yl)imidazo[4,5-b]pyridin-3-yl]-2,3-dihydro-1H-inden-1-yl]amino}piperidin-1-yl)prop-2-en-1-one] the same measures were 112 nM, 835 nM, 1740 nM and 1190 nM.
For `C=CC(=O)N(C)CC(=O)N[C@H]1CCc2cc(-n3c(-c4cccnc4N)nc4ccc(-n5cccn5)nc43)ccc21` [Example 52, (S)-N-(2-((5-(2-(2-aminopyridin-3-yl)-5-(1H-pyrazol-1-yl)-3H-imidazo[4,5-b]pyridin-3-yl)-2,3-dihydro-1H-inden-1-yl)amino)-2-oxoethyl)-N-methylacrylamide] the same measures were 949 nM, 3480 nM, 174 nM and 911 nM.
For `C=CC(=O)N1CCC(N[C@H]2CCc3cc(-n4c(-c5cccnc5N)nc5ccc(C6CC6)nc54)ccc32)C[C@H]1C` (single isomer, unassigned) [Example 210, 1-((2R,4*)-4-(((S)-5-(2-(2-aminopyridin-3-yl)-5-cyclopropyl-3H-imidazo[4,5-b]pyridin-3-yl)-2,3-dihydro-1H-inden-1-yl)amino)-2-methylpiperidin-1-yl)prop-2-en-1-one] the same measures were 16.8 nM, 272 nM, 919 nM and 380 nM.
With `C=CC(=O)N1CC2CCC(C1)C2N[C@H]1CCc2cc(-n3c(-c4cccnc4N)nc4ccc(-n5cccn5)nc43)ccc21` (stereo partly drawn) [Example 14, 1-(8-{[(1S)-5-[2-(2-aminopyridin-3-yl)-5-(pyrazol-1-yl)imidazo[4,5-b]pyridin-3-yl]-2,3-dihydro-1H-inden-1-yl]amino}-3-azabicyclo[3.2.1]octan-3-yl)prop-2-en-1-one], the IC50 in test [1] was determined as 436 nM; in test [2], 1420 nM; in test [3], 85.3 nM; in test [4] (Homo sapiens, LAPC4, 72 h), 1160 nM.
For `C=CC(=O)N1CCC(N[C@H]2CCc3cc(-n4c(-c5cccnc5N)nc5c(C#N)cc(-n6cccn6)nc54)ccc32)CC1` [Example 315, 2-(2-aminopyridin-3-yl)-3-[(1S)-1-{[1-(prop-2-enoyl)piperidin-4-yl]amino}-2,3-dihydro-1H-inden-5-yl]-5-(pyrazol-1-yl)imidazo[4,5-b]pyridine-7-carbonitrile] the same measures were 14.3 nM, 70.3 nM, 183 nM and 120 nM.
Consider `C=CC(=O)N1CCN(NC2CCc3cc(-n4c(-c5cccnc5N)nc5ccc(-n6ccc(F)n6)nc54)ccc32)CC1` (single isomer, unassigned) [Example 201, 1-(4-{[(1*)-5-[2-(2-aminopyridin-3-yl)-5-(3-fluoropyrazol-1-yl)imidazo[4,5-b]pyridin-3-yl]-2,3-dihydro-1H-inden-1-yl]amino}piperazin-1-yl)prop-2-en-1-one], for which the IC50 in test [1] came out at 10.2 nM; in test [2], 41 nM; in test [3] it was 96.8 nM; in test [4] (72 h) it was 127 nM.
As for `CC(C)(C)/C=C/C(=O)N1CCC(N[C@H]2CCc3cc(-n4c(-c5cccnc5N)nc5ccc(-n6cccn6)nc54)ccc32)CC1` [Example 95, (S,E)-1-(4-((5-(2-(2-aminopyridin-3-yl)-5-(1H-pyrazol-1-yl)-3H-imidazo[4,5-b]pyridin-3-yl)-2,3-dihydro-1H-inden-1-yl)amino)piperidin-1-yl)-4,4-dimethylpent-2-en-1-one], the IC50 was determined as 312 nM in test [1]; 1190 nM in test [2]; 110 nM in test [3]; 677 nM in test [4] (Homo sapiens, LAPC4, 72 h).
For `C=CC(=O)Nc1cccc(C(=O)N[C@H]2CCc3cc(-n4c(-c5cccnc5N)nc5ccc(-n6cccn6)nc54)ccc32)c1` [Example 2, (S)-3-acrylamido-N-(5-(2-(2-aminopyridin-3-yl)-5-(1H-pyrazol-1-yl)-3H-imidazo[4,5-b]pyridin-3-yl)-2,3-dihydro-1H-inden-1-yl)benzamide] the same measures were 22.7 nM, 117 nM, 18.7 nM and 189 nM.
As for `C=CC(=O)NCc1ccccc1C(=O)N[C@H]1CCc2cc(-n3c(-c4cccnc4N)nc4ccc(-n5cccn5)nc43)ccc21` [Example 71, N-[(1S)-5-[2-(2-aminopyridin-3-yl)-5-(pyrazol-1-yl)imidazo[4,5-b]pyridin-3-yl]-2,3-dihydro-1H-inden-1-yl]-2-(prop-2-enamidomethyl)benzamide], the IC50 in test [1] amounted to 9.43 nM; in test [2] it was 31.8 nM; in test [3], 11.5 nM; in test [4] (Homo sapiens, LAPC4, 72 h), 29.8 nM.
Regarding `C=CC(=O)N1CCC(N[C@H]2CCc3cc(-n4c(-c5cccnc5N)nc5ccc(-n6cccn6)nc54)ccc32)C(OC)C1` (single isomer, unassigned) [Example 118, 1-((3*,4*)-4-(((S)-5-(2-(2-aminopyridin-3-yl)-5-(1H-pyrazol-1-yl)-3H-imidazo[4,5-b]pyridin-3-yl)-2,3-dihydro-1H-inden-1-yl)amino)-3-methoxypiperidin-1-yl)prop-2-en-1-one], the IC50 in test [1] is 42 nM; in test [2], 320 nM; in test [3], 21.3 nM; in test [4] (72 h), 167 nM.
For `C=CC(=O)N1C[C@H]2COC[C@@H](C1)C2N[C@H]1CCc2cc(-n3c(-c4cccnc4N)nc4ccc(-n5cccn5)nc43)ccc21` (single isomer, unassigned) [Example 73, 1-((1R,5S,9*)-9-(((S)-5-(2-(2-aminopyridin-3-yl)-5-(1H-pyrazol-1-yl)-3H-imidazo[4,5-b]pyridin-3-yl)-2,3-dihydro-1H-inden-1-yl)amino)-3-oxa-7-azabicyclo[3.3.1]nonan-7-yl)prop-2-en-1-one], the IC50 turned out to be 19 nM in test [1], 86.3 nM in test [2], 16 nM in test [3] and 74.4 nM in test [4] (72 h).
